Assay results taken from US20100119483A1, “PEPTIDE VIRAL ENTRY INHIBITORS” (Schering Corporation, priority 2004, published 2010).
Values joined by “and” are separate entries in the source; they are usually repeats but may differ in a detail not shown here. Equal values may be shown once.

Tested on: HCV pseudoparticles
Assay: HCV pseudoparticle (HCVpp) entry assay in Huh7 hepatoma cells, luciferase readout
Type: cell-based, hepatitis C virus
Conditions: for % of control at ~30 uM: percentage of hepatitis C virus cellular entry at 30 μM peptide vs uninhibited control
Protocol: HCV pseudotype particle generation. Single cycle HCV pseudoparticles are composed of a replication-defective HIV genome and HCV envelope proteins. These pseudoparticles were made by transfecting 293T cells with 5 ug of each pNL43E-R-luc (Chen et al., J. Virol. 68(2):654-60 (1994)) and plasmid expressing HCV envelope proteins pCMV/E1-2 with profection transfection kit from Promega (Madison, Wis.). The medium was refreshed 12-24 hours after transfection and supernatant was collected 48 hours after transfection. The supernatant from a transfection of only pNL43E-R-luc was used each time as a control for non specific entry events.
Infection of hepatoma cell lines with HCV pseudotype particles and screen for inhibitory peptides. The hepatoma cells, Huh7, was seeded at 8000 cells in 90 ul medium in 96-well plate. In the case of the inhibitor screen, the inhibitor was incubated with cells for one hour at 37° C. and then 50 ul viral supernatant was added to the cells 24 hours after seeding. The viral stock was pre-tittered and diluted to yield approximately 10,000 to 20,000 RLU. The cells were incubated at 37° C. with 5% CO2 for additional 72 hours and were harvested for luciferase assay. Peptide stocks were prepared in 100% DMSO at 10 mg/ml and were first screened at 100 ug/ml and then a dose responsive curve was generated with 10 points 3-fold titration starting from 100 ug/ml.
The peptide of SEQ ID NO: 77 was first serial diluted by the factor of 3 in 100% DMSO from 100 ug/ml and then transferred to the assay plates at 100-fold dilution. The peptide was first incubated with cells and HCVpp (A) or HIVpp (B), respectively, for 30 minutes at […] in this experiment. Then, the medium containing the peptide was removed from the cells and virus with peptide was added to the cells. Cells were incubated for 72 hours and then were harvested for luciferase assay. Two separate trials were performed.
In addition, the peptide of SEQ ID NO: 77 was mutated at several positions and assayed in the HCV entry assay discussed above. […] The assays were performed essentially as described above.

[1] = 0.1 nM of peptide (printed for three rows), two values per peptide and row
[2] = 0.3 nM of peptide, two values per peptide
[3] = 1 nM of peptide, two values per peptide
[4] = 3 nM of peptide, two values per peptide
[5] = 10 nM of peptide, two values per peptide
[6] = 30 nM of peptide, two values per peptide
[7] = 100 nM of peptide, two values per peptide
[8] = 300 nM of peptide, two values per peptide
[9] = 10000 nM of peptide, two values per peptide
[10] = 30000 nM of peptide, two values per peptide

Substance | % control (HCVpp entry), alanine scanning [1] | % control (HCVpp entry), alanine scanning [2] | % control (HCVpp entry), alanine scanning [3] | % control (HCVpp entry), alanine scanning [4] | % control (HCVpp entry), alanine scanning [5] | % control (HCVpp entry), alanine scanning [6] | % control (HCVpp entry), alanine scanning [7] | % control (HCVpp entry), alanine scanning [8] | % control (HCVpp entry), alanine scanning [9] | % of control at ~30 uM | other results
A-A-K-W-E-Y-V-L-L-L-F-L-L (AAKWEYVLLLFLL; HCV peptide) [SEQ ID NO: 87, Ala-scan] | 90 % control and 108 % control and 113 % control and 93 % control and 104 % control | 84 % control and 75 % control | 110 % control and 93 % control | 92 % control and 68 % control | 45 % control and 57 % control | 42 % control and 51 % control | 19 % control and 15 % control | 16 % control and 13 % control | 15 % control and 23 % control | 14% | % control (HCVpp entry), alanine scanning [10]: 11 % control and 6 % control
A-G-K-W-E-Y-V-L-L-L-F-L-L (AGKWEYVLLLFLL; HCV peptide) [SEQ ID NO: 83, Gly-scan] | – | – | – | – | – | – | – | – | – | 9% | % control (HCVpp entry), glycine scanning (0.00003 uM of peptide, two values per peptide and row): 98 % control and 80 % control and 128 % control and 94 % control; % control (HCVpp entry), glycine scanning (0.0001 uM of peptide, two values per peptide): 75 % control and 94 % control; % control (HCVpp entry), glycine scanning (0.0003 uM of peptide, two values per peptide): 94 % control and 83 % control; % control (HCVpp entry), glycine scanning (0.001 uM of peptide, two values per peptide): 70 % control and 67 % control; % control (HCVpp entry), glycine scanning (0.003 uM of peptide, two values per peptide): 51 % control and 66 % control; % control (HCVpp entry), glycine scanning (0.01 uM of peptide, two values per peptide): 76 % control and 56 % control; % control (HCVpp entry), glycine scanning (0.03 uM of peptide, two values per peptide): 43 % control and 62 % control; % control (HCVpp entry), glycine scanning (30 uM of peptide, two values per peptide): 18 % control and 15 % control
A-I-A-W-E-Y-V-L-L-L-F-L-L (AIAWEYVLLLFLL; HCV peptide) [SEQ ID NO: 88, Ala-scan] | 96 % control and 85 % control and 87 % control and 108 % control and 109 % control | 91 % control and 101 % control | 100 % control and 69 % control | 81 % control and 93 % control | 56 % control and 60 % control | 53 % control and 66 % control | 37 % control and 57 % control | 42 % control and 45 % control | 27 % control and 32 % control | 9% | –
A-I-K-A-E-Y-V-L-L-L-F-L-L (AIKAEYVLLLFLL; HCV peptide) [SEQ ID NO: 89, Ala-scan] | 76 % control and 84 % control and 95 % control and 104 % control and 105 % control and 96 % control | 64 % control and 71 % control | 96 % control and 85 % control | 76 % control and 63 % control | 57 % control and 63 % control | 71 % control and 66 % control | 38 % control and 41 % control | 27 % control and 24 % control | 17 % control and 24 % control | 8% | –
A-I-K-K-E-Y-V-L-L-L-F-L-L (AIKKEYVLLLFLL; HCV peptide) [SEQ ID NO: 128] | – | – | – | – | – | – | – | – | – | – | % control (HCVpp entry), lysine scanning [1]: 80 % control and 86 % control and 107 % control and 102 % control and 87 % control and 103 % control; % control (HCVpp entry), lysine scanning [2]: 64 % control and 88 % control; % control (HCVpp entry), lysine scanning [3]: 99 % control and 72 % control; % control (HCVpp entry), lysine scanning [4]: 84 % control and 81 % control; % control (HCVpp entry), lysine scanning [5]: 63 % control and 92 % control; % control (HCVpp entry), lysine scanning [6]: 59 % control and 55 % control; % control (HCVpp entry), lysine scanning [7]: 52 % control and 46 % control; % control (HCVpp entry), lysine scanning [8]: 22 % control and 28 % control; % control (HCVpp entry), lysine scanning [9]: 7 % control and 4 % control
A-I-K-P-E-Y-V-L-L-L-F-L-L (AIKPEYVLLLFLL; HCV peptide) [SEQ ID NO: 118] | – | – | – | – | – | – | – | – | – | – | % control (HCVpp entry), proline scanning [1]: 87 % control and 80 % control and 108 % control and 103 % control and 79 % control and 110 % control; % control (HCVpp entry), proline scanning [2]: 92 % control and 101 % control; % control (HCVpp entry), proline scanning [3]: 99 % control and 74 % control; % control (HCVpp entry), proline scanning [4]: 84 % control and 108 % control; % control (HCVpp entry), proline scanning [5]: 83 % control and 116 % control; % control (HCVpp entry), proline scanning [6]: 93 % control and 63 % control; % control (HCVpp entry), proline scanning [7]: 53 % control and 47 % control; % control (HCVpp entry), proline scanning [8]: 29 % control and 38 % control; % control (HCVpp entry), proline scanning [10]: 33 % control and 24 % control
A-I-K-W-A-Y-V-L-L-L-F-L-L (AIKWAYVLLLFLL; HCV peptide) [SEQ ID NO: 90, Ala-scan] | 105 % control and 98 % control and 82 % control and 106 % control and 116 % control and 96 % control | 73 % control and 94 % control | 66 % control and 98 % control | 106 % control and 81 % control | 66 % control and 46 % control | 69 % control and 63 % control | 51 % control and 43 % control | 55 % control | – | 13% | –
A-I-K-W-E-A-V-L-L-L-F-L-L (AIKWEAVLLLFLL; HCV peptide) [SEQ ID NO: 91, Ala-scan] | 101 % control and 73 % control and 107 % control and 89 % control and 93 % control and 111 % control | 81 % control and 84 % control | 120 % control and 102 % control | 86 % control and 110 % control | 59 % control and 66 % control | 49 % control and 48 % control | 35 % control and 32 % control | 17 % control and 27 % control | 30 % control and 15 % control | 16% | % control (HCVpp entry), alanine scanning [10]: 12 % control and 18 % control
A-I-K-W-E-K-V-L-L-L-F-L-L (AIKWEKVLLLFLL; HCV peptide) [SEQ ID NO: 130] | – | – | – | – | – | – | – | – | – | – | % control (HCVpp entry), lysine scanning [1]: 122 % control and 84 % control and 106 % control and 96 % control and 105 % control and 93 % control; % control (HCVpp entry), lysine scanning [2]: 103 % control and 100 % control; % control (HCVpp entry), lysine scanning [3]: 114 % control and 89 % control; % control (HCVpp entry), lysine scanning [4]: 95 % control and 81 % control; % control (HCVpp entry), lysine scanning [5]: 90 % control and 102 % control; % control (HCVpp entry), lysine scanning [6]: 74 % control and 75 % control; % control (HCVpp entry), lysine scanning [8]: 33 % control and 19 % control
A-I-K-W-E-P-V-L-L-L-F-L-L (AIKWEPVLLLFLL; HCV peptide) [SEQ ID NO: 120] | – | – | – | – | – | – | – | – | – | – | % control (HCVpp entry), proline scanning [1]: 82 % control and 78 % control and 102 % control and 80 % control and 101 % control and 117 % control; % control (HCVpp entry), proline scanning [2]: 90 % control and 75 % control; % control (HCVpp entry), proline scanning [3]: 91 % control and 75 % control; % control (HCVpp entry), proline scanning [4]: 66 % control and 76 % control; % control (HCVpp entry), proline scanning [5]: 73 % control and 76 % control; % control (HCVpp entry), proline scanning [6]: 72 % control and 40 % control; % control (HCVpp entry), proline scanning [7]: 39 % control; % control (HCVpp entry), proline scanning [8]: 33 % control and 39 % control; % control (HCVpp entry), proline scanning [9]: 24 % control; % control (HCVpp entry), proline scanning [10]: 38 % control and 42 % control
A-I-K-W-E-Y-A-L-L-L-F-L-L (AIKWEYALLLFLL; HCV peptide) [SEQ ID NO: 92, Ala-scan] | 73 % control and 115 % control and 82 % control and 89 % control and 99 % control and 130 % control | 85 % control and 61 % control | 90 % control and 80 % control | 68 % control and 99 % control | 82 % control and 59 % control | 42 % control and 64 % control | 32 % control and 25 % control | 21 % control and 30 % control | – | 17% | –
